Target: BCL2 (Homo sapiens, UniProt P10415)
Test: Biacore SPR solution inhibition assay of BCL-2 binding to peptide derivatized sensor surfaces
Settings: SPR competition; 56 nM BCL2 pre-equilibrated with compound one hour; biotinylated BAK, BAD and NOXA peptide surfaces; 25° C.
Method in brief: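 Solution-competition SPR at 25 °C in HEPES pH 7.4 buffer with 1.25 mM DTT and 3% DMSO: compounds (6-point threefold series, 16 μM to 0.004 nM) pre-equilibrated 1 h with 56 nM BCL2, then injected over captured biotinylated BAK, BAD and NOXA peptide surfaces. Binding levels relative to BCL2-only controls gave % inhibition.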

Chain of BCL2 (P10415 whole entry): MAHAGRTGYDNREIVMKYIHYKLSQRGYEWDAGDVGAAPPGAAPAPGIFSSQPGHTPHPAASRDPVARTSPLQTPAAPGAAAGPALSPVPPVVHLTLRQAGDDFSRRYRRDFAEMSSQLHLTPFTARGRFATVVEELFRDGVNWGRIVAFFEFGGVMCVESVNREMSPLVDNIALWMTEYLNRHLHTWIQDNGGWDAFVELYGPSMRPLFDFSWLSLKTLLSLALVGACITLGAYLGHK

Compound | IC50 [nM]
CN(C)CC[C@H](CSc1ccccc1)Nc1ccc(S(=O)(=O)Nc2ncnc3c2CCN(C2CCN(Cc4ccccc4-c4ccc(F)cc4)CC2)C3)cc1S(=O)(=O)C(F)(F)F [Example 5, (R)-4-(4-(dimethylamino)-1-(phenylthio)butan-2-ylamino)-N-(7-(1-((4′-fluorobiphenyl-2-yl)methyl)piperidin-4-yl)-5,6,7,8-tetrahydropyrido[3,4-d]pyrimidin-4-yl)-3-(trifluoromethylsulfonyl)benzenesulfonamide] | 25
COC1(Cc2ccccc2-c2ccc(Cl)cc2)CCC(N2CCc3c(ncnc3NS(=O)(=O)c3ccc(N[C@H](CCN(C)C)CSc4ccccc4)c(S(=O)(=O)C(F)(F)F)c3)C2)CC1 (mixture of isomers) [Example 60, (R)-N-(7-(4-((4′-chlorobiphenyl-2-yl)methyl)-4-methoxycyclohexyl)-5,6,7,8-tetrahydropyrido[3,4-d]pyrimidin-4-yl)-4-(4-(dimethylamino)-1-(phenylthio)butan-2-ylamino)-3-(trifluoromethylsulfonyl)benzenesulfonamide] | 63
[2H]C1(N2CCc3c(ncnc3NS(=O)(=O)c3ccc(N[C@H](CCN4CCCC4)CSc4ccccc4)c(S(=O)(=O)C(F)(F)F)c3)C2)CCN(Cc2cc(F)ccc2-c2ccc(Cl)cc2)CC1 [Example 82, (R)-N-(7-(1-((4′-chloro-4 fluorobiphenyl-2-yl)methyl)-4-dueteropiperidin-4-yl)-5,6,7,8-tetrahydropyrido[3,4-d]pyrimidin-4-yl)-4-(1-(phenylthio)-4-(pyrrolidin-1-yl)butan-2-ylamino)-3-(trifluoromethylsulfonyl) benzene sulfonamide] | 109
CN(C)CC[C@H](CSc1ccc(F)cc1)Nc1ccc(S(=O)(=O)Nc2ncnc3c2CCN(C2CCN(Cc4ccccc4-c4ccc(Cl)cc4)CC2)C3)cc1S(=O)(=O)C(F)(F)F [Example 37, N-{7-[1-(4′-Chloro-biphenyl-2-ylmethyl)-piperidin-4-yl]-5,6,7,8-tetrahydro-pyrido[3,4-d]pyrimidin-4-yl}-4-[(R)-3-dimethylamino-1-(4-fluoro-phenylsulfanylmethyl)-propylamino]-3-trifluoromethanesulfonyl-benzenesulfonamide] | 58
CN(C)CC[C@H](CSc1ccccc1Cl)Nc1ccc(S(=O)(=O)Nc2ncnc3c2CCN(C2CCN(Cc4ccccc4-c4ccc(Cl)cc4)CC2)C3)cc1S(=O)(=O)C(F)(F)F [Example 40] | 32
O=S(=O)(Nc1nnc2n1CCN(C1CCCN(Cc3ccccc3-c3ccc(Cl)cc3)CC1)C2)c1ccc(N[C@H](CCN2CCOCC2)CSc2ccccc2)c(S(=O)(=O)C(F)(F)F)c1 (stereo partly drawn) [Example 95, N-{7-[1-(4′-Chloro-biphenyl-2-ylmethyl)-azepan-4-yl]-5,6,7,8-tetrahydro-[1,2,4]triazolo[4,3-a]pyrazin-3-yl}-4-((R)-3-morpholin-4-yl-1-phenylsulfanylmethyl-propylamino)-3-trifluoromethanesulfonyl-benzenesulfonamide] | 1900
CN(C)CC[C@H](CSc1ccccc1)Nc1ccc(S(=O)(=O)Nc2ncnc3c2CCN(C2CCN(CC4=C(c5ccc(Cl)cc5)CC(C)(C)CC4)CC2)C3)cc1S(=O)(=O)C(F)(F)F [Example 17, (R)-N-(7-(1-((2-(4-chlorophenyl)-4,4-dimethylcyclohex-1-enyl)methyl)piperidin-4-yl)-5,6,7,8-tetrahydropyrido[3,4-d]pyrimidin-4-yl)-4-(4-(dimethylamino)-1-(phenylthio)butan-2-ylamino)-3-(trifluoromethylsulfonyl)benzenesulfonamide] | 22
[2H]C1(N2CCc3c(nc(C(F)(F)F)nc3NS(=O)(=O)c3ccc(N[C@H](CCN4CCN(C)CC4)CSc4ccccc4F)c(S(=O)(=O)C(F)(F)F)c3)C2)CCN([C@@H](C)c2ccccc2-c2ccc(Cl)cc2)CC1 [Example 74] | 41
CC#CCOc1ccccc1CN1CCC(N2CCc3c(ncnc3NS(=O)(=O)c3ccc(N[C@H](CCN(C)C)CSc4ccccc4)c(S(=O)(=O)C(F)(F)F)c3)C2)CC1 [Example 46, (R)-N-(7-(1-(2-(but-2-ynyloxy)benzyl)piperidin-4-yl)-5,6,7,8-tetrahydropyrido[3,4-d]pyrimidin-4-yl)-4-(4-(dimethylamino)-1-(phenylthio)butan-2-ylamino)-3-(trifluoromethylsulfonyl)benzenesulfonamide] | 1770
[2H]C1(N2CCc3c(ncnc3NS(=O)(=O)c3ccc(N[C@H](CCN4CCN(C)CC4)CSc4ccccc4F)c(S(=O)(=O)C(F)(F)F)c3)C2)CCN(CC2=C(c3ccc(Cl)cc3)CC(C)(C)CC2)CC1 [Example 83] | 28
CC1(C)CCC(CN2CCC(N3CCc4c(ncnc4NS(=O)(=O)c4ccc(N[C@H](CCN5CCOCC5)CSc5ccccc5)c(S(=O)(=O)C(F)(F)F)c4)C3)CC2)=C(c2ccc(Cl)cc2)C1 [Example 16, (R)-N-(7-(1-((2-(4-chlorophenol)-4,4-dimethylcyclohex-1-enyl)methyl)piperidin-4-yl)-5,6,7,8-tetrahydropyrido[3,4-d]pyrimidin-4-yl)-4-(4-morpholino-1-(phenylthio)butan-2-ylamino)-3-(trifluoromethylsulfonyl)benzenesulfonamide] | 41
[2H]C1(N2CCc3c(ncnc3NS(=O)(=O)c3ccc(N[C@H](CCN4CCOCC4)CSc4ccccc4)c(S(=O)(=O)C(F)(F)F)c3)C2)CCN([C@@H](C)c2ccccc2-c2ccc(Cl)cc2)CC1 [Example 88] | 2310

More lines, now with the values ahead:

IC50 [nM] | Compound
25 | CN(C)CC[C@H](CSc1ccccc1F)Nc1ccc(S(=O)(=O)Nc2ncnc3c2CCN(C2CCN(Cc4ccccc4-c4ccc(Cl)cc4)CC2)C3)cc1S(=O)(=O)C(F)(F)F [Example 47, N-{7-[1-(4′-Chloro-biphenyl-2-ylmethyl)-piperidin-4-yl]-5,6,7,8-tetrahydro-pyrido[3,4-d]pyrimidin-4-yl}-4-[(R)-3-dimethylamino-1-(2-fluoro-phenylsulfanylmethyl)-propylamino]-3-trifluoromethanesulfonyl-benzene sulfonamide]
259 | CN(C)CC[C@H](CSc1cc(Cl)cc(Cl)c1)Nc1ccc(S(=O)(=O)Nc2ncnc3c2CCN(C2CCN(Cc4ccccc4-c4ccc(Cl)cc4)CC2)C3)cc1S(=O)(=O)C(F)(F)F [Example 41, (R)-N-(7-(1-((4′-chlorobiphenyl-2-yl)-methyl)piperidin-4-yl)-5,6,7,8-tetrahydropyrido[3,4-c]pyrimidin-4-yl)-4-(1-(3,5-dichlorophenylthio)-4-(dimethylamino)butan-2-ylamino)-3-(trifluoromethylsulfonyl)benzenesulfonamide]
144 | CC1CC(N2CCn3c(nnc3NS(=O)(=O)c3ccc(N[C@H](CCN4CCOCC4)CSc4ccccc4)c(S(=O)(=O)C(F)(F)F)c3)C2)CCN1Cc1ccccc1-c1ccc(Cl)cc1 (stereo partly drawn) [Example 96, N-{7-[1-(4′-Chloro-biphenyl-2-ylmethyl)-2-methyl-piperidin-4-yl]-5,6,7,8-tetrahydro-[1,2,4]triazolo[4,3-a]pyrazin-3-yl}-4-((R)-3-morpholin-4-yl-1-phenylsulfanylmethyl-propylamino)-3-trifluoromethanesulfonyl-benzenesulfonamide]
34 | COc1ccc(-c2ccc(Cl)cc2)c(CN2CCC(N3CCc4c(ncnc4NS(=O)(=O)c4ccc(N[C@H](CCN(C)C)CSc5ccccc5)c(S(=O)(=O)C(F)(F)F)c4)C3)CC2)c1 [Example 36, (R)-N-(7-(1-((4′-chloro-4-methoxybiphenyl-2-yl)methyl)piperidin-4-yl)-5,6,7,8-tetrahydropyrido[3,4-d]pyrimidin-4-yl)-4-(4-(dimethylamino)-1-(phenylthio)butan-2-ylamino)-3-(trifluoromethylsulfonyl)benzenesulfonamide]
502 | CC[C@H](CSc1ccccc1)Nc1ccc(S(=O)(=O)Nc2ncnc3c2CCN(C2CCN(Cc4ccccc4-c4ccc(Cl)cc4)CC2)C3)cc1S(=O)(=O)C(F)(F)F [Example 13]
89 | CC(C1=C(c2ccc(Cl)cc2)CC(C)(C)CC1)N1CCC(N2CCc3c(ncnc3NS(=O)(=O)c3ccc(N[C@H](CCN4CCOCC4)CSc4ccccc4)c(S(=O)(=O)C(F)(F)F)c3)C2)CC1 (stereo partly shown) [Example 24]
142 | CN(C)CC[C@H](COCc1ccccc1)Nc1ccc(S(=O)(=O)Nc2ncnc3c2CCN(C2CCN(Cc4ccccc4-c4ccc(Cl)cc4)CC2)C3)cc1S(=O)(=O)C(F)(F)F [Example 25, 4-((R)-1-Benzyloxymethyl-3-dimethylamino-propylamino)-N-{7-[1-(4′-chloro-biphenyl-2-ylmethyl)-piperidin-4-yl]-5,6,7,8-tetrahydro-pyrido[3,4-d]pyrimidin-4-yl}-3-trifluoromethanesulfonyl-benzenesulfonamide]
42 | CN(C)CC[C@H](CSc1ccccc1)Nc1ccc(S(=O)(=O)Nc2nc(C(F)(F)F)nc3c2CCN(C2CCN(Cc4ccccc4-c4ccc(Cl)cc4)CC2)C3)cc1S(=O)(=O)C(F)(F)F [Example 67, (R)-N-(7-(1((4′-chlorobiphenyl-2-yl)methyl)piperidin-4-yl)-2-(trifluoromethyl)-5,6,7,8-tetrahydropyrido[3,4-d]pyrimidin-4-yl)-4-(4-(dimethylamino)-1-(phenylthio)butan-2-ylamino)-3-(trifluoramethylsulfonyl)benzenesulfonamide]
31 | CN(C)CC[C@H](CSc1ccccc1)Nc1ccc(S(=O)(=O)Nc2ncnc3c2CCN(C2CCN(CC4=C(c5ccc(Cl)cc5)CCC(C)(C)C4)CC2)C3)cc1S(=O)(=O)C(F)(F)F [Example 10, (R)-N-(7-(1-((2-(4-chlorophenyl)-5,5-dimethylcyclohex-1-enyl)methyl)piperidin-4-yl)-5,6,7,8-tetrahydropyrido[3,4-d]pyrimidin-4-yl)-4-(4-(dimethylamino)-1-(phenylthio)butan-2-ylamino)-3-(trifluoromethylsulfonyl)benzenesulfonamide]
1180 | CN(C)CC[C@H](CSc1ccccc1)Nc1ccc(S(=O)(=O)Nc2ncnc3c2CCN(C2CCC(=Cc4ccccc4)CC2)C3)cc1S(=O)(=O)C(F)(F)F (stereo partly shown) [Example 63]

From US8809352B2, “Sulfonamides as inhibitors of Bcl-2 family proteins for the treatments of cancer” (Novartis AG, priority 2009, dated 2014)
